Measured values reported in US20070248646A1, “Use of azurocidin inhibitors in prevention and treatment of ocular vascular leakage” (priority 2006, published 2007).

Tests used:
[1] = test system: intravitreal leukocyte accumulation in EIU; experiment: Intravitreal leukocyte accumulation in Endotoxin-Induced-Uveitis; format: in vivo, Lewis rats; conditions: 24 hours post LPS-injection; aprotinin 50,000KIU at 0, 8, 16 hours; EIU 343.6±11.7
Procedure: EIU was induced in Lewis rats via footpad injection of 100 μl (1 mg/ml) lipopolysaccharide (LPS). Control animals received an equal volume of saline. The experiments were conducted 24 hours after LPS injection. At this time point, several experimental parameters were assessed.
To block AZ, animals received 5 ml of aprotinin (Trasylol®; 50,000KIU). The first injection was given at the same time as the footpad injection, followed by a second injection 8 hours later and a third injection 16 hours later. The control animals received and equal amounts of vehicle control. LPS was purchased in lyophilized form from Sigma (#L6511).
To assess leukocyte extravasations into the vitreal cavity during EIU, histological slides of the whole eyes of treated rats were generated and the number of leukocytes in the vitreous cavity of these sections was counted. To do so, whole eyes were placed in 4% paraformaldehyde for fixation. Gradual infiltration of graded alcohols was followed by xylene and finally by liquid paraffin. Paraffin submerged eyes were then cooled to harden. Six-micron sections were cut on a Leica microtome and placed on slides. Sections were stained with hematoxylin and eosin and coverslipped.

[2] = test system: VEGF-induced blood retinal barrier breakdown; experiment: VEGF-induced blood retinal barrier breakdown (Evans Blue); format: in vivo, Brown Norway rats
Procedure: This study employed Brown Norway rats, AZ (1 μg, 10 μg, 20 μg), PBS, aprotinin, VEGF164, and polyclonal anti-AZ antibody (1 μg). Briefly, Brown Norway rats received intravitreal injections of AZ (1 μg, 10 μg and 20 μg) in one eye and PBS in the contralateral eye. BRB breakdown was quantified using the Evans Blue (EB) technique at 1 hour, 3 hours, and 24 hours after intravitreal injection of AZ or PBS. To assess whether AZ induced retinal leukostasis, firm leukocyte adhesion was quantified at 3 hours and 24 hours post AZ injection (10 μg) using the ex vivo conconavalin leukostasis assay. To block AZ, rats were treated with a single intravenous injection of aprotinin (30,000KIU), prior to the intravitreal injections. To investigate whether AZ was involved in VEGF-induced BRB breakdown, rats received intravitreal injections of 50 ng recombinant mouse VEGF164 in one eye and PBS in the other eye and were treated intravenously with aprotinin (50,000KIU every eight hours) or polyclonal anti-AZ antibody (1 μg). BRB breakdown and retinal leukostasis were quantified 24 hours after VEGF injection.
Rats received intravitreous injections of 5 μl of sterile phosphate-buffered saline (PBS) containing 50 ng VEGF164 (R&D Systems, Minneapolis, Minn.) in one eye and 5 μl of sterile phosphate-buffered saline (PBS) in the contralateral eye. The retinas were analyzed for leakage 24 hours after VEGF injection.
In a second group, the rats were additionally treated intravenously with aprotinin (Trasylol®, Bayer Pharmaceuticals). 50,000KIU of aprotinin (5 ml of Trasylol®) was administered intravenously through the tail vein 1 hour before, as well as 8 hours and 16 hours after, the intravitreal injection of VEGF. The retinas were analyzed 24 hours after VEGF administration.
In a third group, rats were treated with intravitreous injections of 1 μg of goat anti-human azurocidin polyclonal antibody (5 μl of a 200 μg/ml antibody solution, Santa Cruz biotechnology) or control goat isotype IgG (R&D system) in the VEGF injected eye 6 hours after VEGF administration.
Retinal vascular permeability was quantified as previously described (Qaum et al. (2002) supra, Xu et al. (2001) INVEST. OPHTHALMOL. VIS. SCI. 42; 789-94). After the animals were deeply anesthetized, Evans blue dye (Sigma) dissolved in normal saline (30 mg/ml) was injected through the tail vein over 10 seconds at a dosage of 45 mg/kg. Blood samples were obtained from the left ventricle, just before perfusion at 2 hours, to obtain the time-average Evans blue dye plasma concentration. These blood samples were centrifuged at 12,000 rpm for 15 minutes and diluted to 1/10,000th of their initial concentration in formamide (Sigma). The background-subtracted absorbance was determined by measuring each sample at 620 nm (the absorbance maximum for Evans blue dye in formamide) and 740 nm (the absorbance minimum) with a spectrophotometer. The concentration of dye in the plasma was calculated from a standard curve of Evans blue dye in formamide. After the dye had circulated for 2 hours, the chest cavity was opened, and the rats were perfused through the left ventricle with 1% paraformaldehyde in citrate buffer (0.05 M, pH 3.5) at a physiological pressure of 120 mm Hg. The retinas were then carefully dissected under an operating microscope. After measurement of the retinal weight, Evans blue dye was extracted by incubating each retina in 0.180 ml of formamide for 18 hours at 70° C. The extract was ultracentrifuged at a speed of 14,000 rpm for 60 minutes at 25° C. Sixty microliters of the supernatant was used for spectrophotometric measurement at 620 nm and 740 nm. The background-subtracted absorbance was determined by measuring each sample at 620 nm (the absorbance maximum for Evans blue dye in formamide) and 740 nm (the absorbance minimum). The concentration of dye in the extracts was calculated from a standard curve of Evans blue dye in formamide. […]

[3] = test system: retinal vascular permeability; experiment: Qualitative evaluation of retinal vascular permeability with 20-kDa FITC conjugated dextran; format: in vivo, Brown Norway rats; conditions: flat-mount retinas, VEGF-injected eyes with or without aprotinin
Procedure: Retinal vascular permeability was documented in a histological manner by intravenous injection of 20-kDa FITC conjugated dextran (50 mg/Kg, Sigma Aldrich). Rats were sacrificed 30 minutes later with intracardiac perfusion of 4% paraformaldehyde to fix the dextran conjugate in the tissues. The retinas were carefully dissected and flat mounted in anti-fading medium (Vector Laboratories). Flat-mount retinas were examined by fluorescent microscopy. Digital color enhancement (green) was equally applied to all images for improved visualization of fluorescence.

## aprotinin
[1]
  number of leukocytes found intravitreally: 119.2±8.4
[2]; 24 hours after intravitreal 50 ng VEGF
  BRB breakdown as percentage of the value in control eyes: 110%±21
[2]; 24 hours after intravitreal 50 ng VEGF, PBS eye 9.6±1.4 (VEGF alone), 5.4±1.4 (with aprotinin)
  Evans Blue retinal leakage in VEGF-injected eye: 6.2±1.5 μl plasma/g retina/h
[2]; 24 hours after intravitreal 50 ng VEGF, aprotinin i.v. 50,000KIU every eight hours, antibody 1 μg intravitreal 6 hours after VEGF
  fold increase in retinal vascular leakage compared to the PBS injected eye: 1.1±0.21 fold
[2]; 24 hours after intravitreal 50 ng VEGF, aprotinin i.v., antibody intravitreal 6 hours after VEGF
  suppression of VEGF-induced blood retinal barrier breakdown: 95%
[2]; PBS-injected eye, i.v. aprotinin
  basal levels of retinal Evans Blue leakage: did not reduce the basal levels of retinal Evans Blue leakage
[3]
  retinal distribution of intravenously injected 20 kDa FITC-conjugated dextran: fluorescein staining more localized to the retinal vasculature
